In patent US20240190864A1 (YA THERAPEUTICS INC, priority 2021, published 2024):

Key:
BTK = BTK (Homo sapiens, UniProt Q06187); experiment: BTK Kinase Test; format: biochemical; conditions: BTK kinase inhibitory activity; enzyme with compound 30 min, ATP 50 μM, ULight poly GT substrate
Experimental: Dilute 350 ng/uL BTK mother solution with kinase buffer solution (50 mM HEPES, 10 mM MgCl2, 2 mM DTT, 1 mM EGTA, 0.01% Tween 20), and add 6 μL 1.67×0.134 ng/μL working solution (final concentration 0.08 ng/μL), using the nanoliter sampler, add different compounds dissolved by DMSO into the pores, so that the final concentration of the compound is 1000 nM-0.244 nM, and the final concentration of the positive drug is 50 nM-0.0122 nM. Four times the gradient, a total of seven concentrations are available. At the same time, set up blank control pores (without enzyme) and negative control pores (with enzyme, with solvent DMSO), and set up two double pores. After the enzyme reacts with compound or solvent for 30 min, 5×250 μM ATP (final concentration is 50 μM) and 5×0.5 μM Substrate (final concentration 0.1 μμM. ULight poly GT), mix at 1:1, 4 per hole μL is added into the hole; after sealing, add […] to each hole after reacting at room temperature for 2 hours μL 4×8 nM detection reagent (final concentration is 2 nM, Ab), incubate at room temperature for 1 hour; PE instrument reading board (excitation […], emission 665 nm). Calculate the inhibition rate and calculate the IC50 value.

[1] = tested on: Diffuse large B cell lymphoma cell strain TMD-8; experiment: Tumor Cell Proliferation Inhibition Assay (CellTiter-Glo); format: cell-based; conditions: Homo sapiens, TMD8; TMD-8 cells, incubated with compound 72 hours, 10% fetal calf serum, ATP content
Experimental: Cell viability was evaluated by measuring a content of triphosadenine (ATP) by using CellTiter-Glo luminescent cell viability assay kit method (Promega, #G7572, Madison, WI). Diffuse large B cell lymphoma cell strain TMD-8 cell strain is purchased from American Type Culture Collection (ATCC). After the cells were digested from a cell culture dish by pancreatin and re-suspended by DPBS culture medium, a Scepter automatic cell counter (Millipore, #PHCC00000) was used for counting to measure a cell density. The cells were diluted to be a solution containing 44,000 cells per milliliter. The cell solution with the adjusted density was added into a cell assay plate with 90 μl per well. The well plate was placed to an incubator with 5% CO2 at 37° C. to be incubated for 24 hours and then added with the compound to be tested with different concentrations. The cells and the compound were together incubated for 72 hours in the presence of 10% fetal calf serum. The content of ATP was measured by using CellTiter-Glo® Luminescent Cell Viability Assay kit (referring to manufacturer's instruction) to evaluate the inhibition to the cell growth. Briefly speaking, each well was added with 30 μl of CellTiter-Glo® reagent, the plate was shaken for 10 minutes to induce the cells to be lysed, and fluorescence signal was detected and recorded by fluorescence/chemiluminescence analyzer Fluoroskan Ascent FL (Thermo Scientific Fluoroskan Ascent FL). The maximal signal value was obtained from cells processed by dimethyl sulfoxide (DMSO) for 72 or 120 hours. The minimal signal value obtained from separate culture medium (wherein the number of cells was zero) was defined as 0. Inhibition ratio %=(maximal signal value−compound signal value)/(maximal signal value−minimal signal value)×100%. The data was processed by using GraphPad Prism V5.0 (GraphPad Software, San Diego, CA) software. IC50 value was fitted and calculated via S-shaped dose-response curve.

BTK, sequence (Q06187 whole entry): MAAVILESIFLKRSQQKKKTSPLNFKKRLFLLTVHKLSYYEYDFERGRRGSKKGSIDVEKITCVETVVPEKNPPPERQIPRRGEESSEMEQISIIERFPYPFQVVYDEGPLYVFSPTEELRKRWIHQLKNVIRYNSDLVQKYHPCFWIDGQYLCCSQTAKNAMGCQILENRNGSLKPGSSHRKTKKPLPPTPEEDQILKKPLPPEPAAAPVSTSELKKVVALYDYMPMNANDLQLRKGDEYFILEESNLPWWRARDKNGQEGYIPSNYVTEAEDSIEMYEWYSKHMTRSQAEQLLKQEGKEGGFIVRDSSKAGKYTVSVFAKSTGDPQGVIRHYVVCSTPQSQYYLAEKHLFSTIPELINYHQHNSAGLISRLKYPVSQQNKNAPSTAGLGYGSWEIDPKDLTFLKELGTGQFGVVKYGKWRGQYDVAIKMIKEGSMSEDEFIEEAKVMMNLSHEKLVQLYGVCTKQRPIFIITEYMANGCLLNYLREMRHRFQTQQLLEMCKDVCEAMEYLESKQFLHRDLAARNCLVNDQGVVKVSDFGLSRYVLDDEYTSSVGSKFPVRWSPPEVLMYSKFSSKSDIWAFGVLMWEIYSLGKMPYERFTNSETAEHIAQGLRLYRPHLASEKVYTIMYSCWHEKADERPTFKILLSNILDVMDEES

Molecule	IC50 (BTK)	IC50 [1]
C=CC(=O)N[C@H]1CCCN(c2nc(-c3ccc(Oc4ccccc4)cc3)c(C(N)=O)c3[nH]c(=O)[nH]c23)C1 [Compound 3, (S)-4-(3-acrylamidopiperidin-1-yl)-2-oxo-6-(4-phenoxyphenyl)-2,3-dihydro-1H-imidazo[4,5-c]pyridine-7-carboxamide]	≤ 10 nM	–
CC#CC(=O)N[C@H]1CCCN(c2nc(-c3ccc(Oc4ccccc4)cc3)c(C(N)=O)c3[nH]ccc23)C1 [Compound 23, (S)-4-(3-(but-2-ynamido)piperidin-1-yl)-6-(4-phenoxyphenyl)-1H-pyrrolo[3,2-c]pyridine-7-carboxamide]	≤ 10 nM	≤ 10 nM
CC#CC(=O)N[C@H]1CCCN(c2ncc(C(N)=O)c3[nH]c(=O)c(=O)[nH]c23)C1 [Compound 28, (S)-5-(3-(but-2-ynamido)piperidin-1-yl)-2,3-dioxo-1,2,3,4-tetrahydropyrido[3,4-b]pyrazine-8-carboxamide]	≤ 10 nM	–
(R)-4-(3-(but-2-ynamido)piperidin-1-yl)-6-(4-phenoxyphenyl)-1H-pyrazolo [4,3-c]pyridine-7-carboxamide [Compound 7]	≤ 10 nM	–
CC#CC(=O)N[C@H]1CCCN(c2nc(-c3ccc(Oc4ccccc4)cc3)c(C(N)=O)c3[nH]c(=O)[nH]c23)C1 [Compound 1, (S)-4-(3-(but-2-ynamido)piperidin-1-yl)-2-oxo-6-(4-phenoxyphenyl)-2,3-dihydro-1H-imidazo[4,5-c]pyridine-7-carboxamide]	≤ 10 nM	–
C=CC(=O)N1CCC[C@@H](c2nc(-c3ccc(Oc4ccccc4)cc3)c(C(N)=O)c3[nH]ccc23)C1 [Compound 27, (R)-4-(1-acryloylpiperidin-3-yl)-6-(4-phenoxyphenyl)-1H-pyrrolo[3,2-c]pyridine-7-carboxamide]	≤ 10 nM	≤ 10 nM
CC#CC(=O)N[C@H]1CCCN(c2nc(-c3ccc(Oc4ccccc4)cc3)c(C(N)=O)c3[nH]ncc23)C1 [Compound 2, (S)-4-(3-(but-2-ynamido)piperidin-1-yl)-6-(4-phenoxyphenyl)-1H-pyrazolo [4,5-c]pyridine-7-carboxamide]	≤ 10 nM	–
CC#CC(=O)N[C@H]1CCCN(c2nc(-c3ccc(Oc4ccccc4)cc3)c(C(N)=O)c3[nH]c(C)nc23)C1 [Compound 19, (S)-4-(3-(but-2-ynamido)piperidin-1-yl)-2-methyl-6-(4-phenoxyphenyl)-1H-imidazo[4,5-c]pyridine-7-carboxamide]	≤ 10 nM	–
CC#CC(=O)N[C@H]1CCN(c2nc(-c3ccc(Oc4ccccc4)cc3)c(C(N)=O)c3[nH]c(=O)[nH]c23)C1 [Compound 5, (S)-4-(3-(but-2-ynamido)pyrrolidin-1-yl)-2-oxo-6-(4-phenoxyphenyl)-2,3-dihydro-1H-imidazo[4,5-c]pyridine-7-carboxamide]	≤ 10 nM	–
C=CC(=O)N1CCC(c2nc(-c3ccc(Oc4ccccc4)cc3)c(C(N)=O)c3[nH]ccc23)CC1 [Compound 25, 4-(1-acryloylpiperidin-4-yl)-6-(4-phenoxyphenyl)-1H-pyrrolo [3,2-c]pyridine-7-carboxamide]	≤ 10 nM	≤ 10 nM
CC#CC(=O)N[C@H]1CCCN(c2ncc(C(N)=O)c3[nH]cnc23)C1 [Compound 36, (S)-4-(3-(but-2-ynamido)piperidin-1-yl)-1H-imidazo[4,5-c]pyridine-7-carboxamide]	≤ 10 nM	–
CC#CC(=O)N[C@@H]1CCN(c2nc(-c3ccc(Oc4ccccc4)cc3)c(C(N)=O)c3[nH]c(=O)[nH]c23)C1 [Compound 9, (R)-4-(3-(but-2-ynamido)pyrrolidin-1-yl)-2-oxo-6-(4-phenoxyphenyl)-2,3-dihydro-1H-imidazo[4,5-c]pyridine-7-carboxamide]	≤ 10 nM	–
C=CC(=O)N1CCC(c2nc(-c3ccc(Oc4ccccc4)cc3)c(C(N)=O)c3[nH]c(=O)[nH]c23)CC1 [Compound 20, 4-(1-acryloylpiperidin-4-yl)-2-oxo-6-(4-phenoxyphenyl)-2,3-dihydro-1H-imidazo[4,5-c]pyridine-7-carboxamide]	≤ 10 nM	–
(R)-4-(3-acrylamidopiperidin-1-yl)-2-oxo-6-(4-phenoxyphenyl)-2,3-dihydro-1H-imidazo[4,5-c]pyridine-7-carboxamide [Compound 8]	≤ 10 nM	–
C=CC(=O)N1CCC(c2ncc(C(N)=O)c3[nH]c(=O)[nH]c23)CC1 [Compound 40, 4-(1-acryloylpiperidin-4-yl)-2-oxo-2,3-dihydro-1H-imidazo[4,5-c]pyridine-7-carboxamide]	≤ 10 nM	≤ 10 nM
(S)-4-(3-acrylamidopyrrolidin-1-yl)-2-oxo-6-(4-phenoxyphenyl)-2,3-dihydro-1H-imidazo[4,5-c]pyridine-7-carboxamide [Compound 4]	≤ 10 nM	–
CC#CC(=O)N[C@H]1CCCN(c2ncc(C(N)=O)c3[nH]c(=O)[nH]c23)C1 [Compound 38, (S)-4-(3-(but-2-ynamido)piperidin-1-yl)-2-oxo-2,3-dihydro-1H-imidazo[4,5-c]pyridine-7-carboxamide]	≤ 10 nM	≤ 10 nM
CC#CC(=O)N[C@H]1CCCN(c2nc(-c3ccc(Oc4ccccc4)cc3)c(C(N)=O)c3[nH]cnc23)C1 [Compound 18, (S)-4-(3-(but-2-ynamido)piperidin-1-yl)-6-(4-phenoxyphenyl)-1H-imidazo[4,5-c]pyridine-7-carboxamide]	≤ 10 nM	–
CC#CC(=O)N[C@@H]1CCCN(c2nc(-c3ccc(Oc4ccccc4)cc3)c(C(N)=O)c3[nH]ccc23)C1 [Compound 24, (R)-4-(3-(but-2-ynamido)piperidin-1-yl)-6-(4-phenoxyphenyl)-1H-pyrrolo[3,2-c]pyridine-7-carboxamide]	≤ 10 nM	–
C=CC(=O)N1CCC[C@H](c2nc(-c3ccc(Oc4ccccc4)cc3)c(C(N)=O)c3[nH]ccc23)C1 [Compound 26, (S)-4-(1-acryloylpiperidin-3-yl)-6-(4-phenoxyphenyl)-1H-pyrrolo[3,2-c]pyridine-7-carboxamide]	≤ 10 nM	≤ 10 nM
CC#CC(=O)N[C@@H]1CCCN(c2nc(-c3ccc(Oc4ccccc4)cc3)c(C(N)=O)c3[nH]c(=O)[nH]c23)C1 [Compound 6, (R)-4-(3-(but-2-ynamido)piperidin-1-yl)-2-oxo-6-(4-phenoxyphenyl)-2,3-dihydro-1H-imidazo[4,5-c]pyridine-7-carboxamide]	≤ 10 nM	–
